Data from US10377725B2, “Phenyl amino pyrimidine compound or polymorph of salt thereof” (Suzhou Zelgen Biopharmaceuticals Co., Ltd., priority 2015, dated 2019).

Tests used:
[1] = accelerated stability test of polymorphs; type: physicochemical; conditions: accelerated test 40±2° C., 75%±5% RH, 6 months; for purity after accelerated test: compared to freshly prepared (0 Month)
[2] = hygroscopicity test of polymorphs (Chinese Pharmacopoeia 2010 edition, Appendix XIX J); type: physicochemical; conditions: 25° C.±1° C., saturated ammonium sulfate solution, 24 h
Procedure: The test was performed according to the guiding principles of drug's hygroscopic test (Chinese Pharmacopoeia 2010 edition, Appendix XIX J).
1. Take 4 dry glass weighing bottles with lids (60 mm of the outer diameter and 30 mm of the height). On the day before the test, the bottles were placed in a glass dryer (“constant temperature and humidity dryer”) where a saturated ammonium sulfate solution was placed, and the glass dryer was placed in the bottom of a constant temperature and humidity box at 25° C.±1° C.
2. After each empty weighing bottle together with its lid were placed in the “constant temperature and humidity dryer” for 24 hours, stabilize precisely the weight of each unit by a set (one weighing bottle+its lid), recorded as m1.
3. A polymorph II sample was taken and tiled in a glass weighing bottle which had been weighed (the thickness of a sample was about 1 mm), and the bottle was covered, the weight of each weighing bottle (one weighing bottle+its lid+the sample) was precisely weighed, recorded as m2.
3. Each sample was placed in the “constant temperature and humidity dryer” for 24 h, and then the weight of each weighing bottle (one weighing bottle+its lid+the sample) was precisely weighed, recorded as m3.
4. The percentage of hygroscopicity weight increase of each sample was calculated (the formula was shown as follows), and it is defined as no or almost no hygroscopicity when the percentage of hygroscopicity weight increase is less than 0.2%. It is defined as slightly hygroscopicity when the percentage of hygroscopicity weight increase is equal or greater than 0.2%, but less than 2.0%. the percentage of weight increase=[(m3−m2)/(m2−m1)]×100%

SMILES | degradated impurity [1] | stability of crystal form [1] | purity after accelerated test [1] | hygroscopicity [2] | percentage of weight increase [2]
Cl.Cl.[2H]C1([2H])CN(c2ccc(Nc3nccc(-c4ccc(C(=O)NCC#N)cc4)n3)cc2)CC([2H])([2H])O1 [polymorph I, N-(cyanomethyl)-4-(2-((4-(2′,2′,6′,6′-d4-morpholino)phenyl)amino)pyrimidin-4-yl)benzamide dihydrochloride] | no obvious degradated impurity was observed | very stable | above 99% | slightly hygroscopicity (slightly hygroscopicity when the percentage of hygroscopicity weight increase is equal or greater than 0.2%, but less than 2.0%) | 
Cl.[2H]C1([2H])CN(c2ccc(Nc3nccc(-c4ccc(C(=O)NCC#N)cc4)n3)cc2)CC([2H])([2H])O1 [polymorph III, N-(cyanomethyl)-4-(2-((4-(2′,2′,6′,6′-d4-morpholino)phenyl)amino)pyrimidin-4-yl)benzamide monohydrochloride] | no obvious degradated impurity was observed | very stable | above 99% |  | 
Cl.Cl.O.[2H]C1([2H])CN(c2ccc(Nc3nccc(-c4ccc(C(=O)NCC#N)cc4)n3)cc2)CC([2H])([2H])O1 [polymorph II, N-(cyanomethyl)-4-(2-((4-(2′,2′,6′,6′-d4-morpholino)phenyl)amino)pyrimidin-4-yl)benzamide dihydrochloride monohydrate] | no obvious degradated impurity was observed | very stable | above 99% | slightly hygroscopicity (slightly hygroscopicity when the percentage of hygroscopicity weight increase is equal or greater than 0.2%, but less than 2.0%) | 0.24%
[2H]C1([2H])COCC([2H])([2H])N1c1ccc(Nc2nccc(-c3ccc(C(=O)NCC#N)cc3)n2)cc1 [polymorph V, N-(cyanomethyl)-4-(2-((4-(2′,2′,6′,6′-d4-morpholino)phenyl)amino)pyrimidin-4-yl)benzamide] | no obvious degradated impurity was observed | very stable | above 99% |  | 
